Laboratory results as given in patent publication US20200171001A1, “COMBINATION THERAPY WITH 2,3-DIHYDRO-ISOINDOLE-1-ONE COMPOUNDS AND METHODS FOR TREATING PATIENTS WITH VARIOUS MUTATIONS” (Aptose Biosciences Inc., priority 2018, published 2020).

Assays:
[1] = tested on: malignant bone marrow or peripheral blood cells from AML patients; test: Ex vivo drug sensitivity (MTS cell viability, IC50 and AUC) on freshly isolated primary AML patient samples, association with somatic mutations; format: cell-based, human; conditions: for Effectiveness (AUC of drug sensitivity) against ASXL1 mutant cells compared with wild type: ASXL1 mutant vs wild type AML cells, FIG. 5; for Effectiveness (AUC of drug sensitivity) against SRSF2 mutant cells compared with wild type: SRSF2 mutant vs wild type AML cells; for Sensitivity of patient samples with FLT3-ITD mutations as compared to wild-type: AML patient samples with FLT3-ITD mutations vs WT, n=118 patients; for Sensitivity of patient samples with FLT3-ITD mutations as compared to wild-type / Sensitivity of patient samples with IDH1 mutants relative to WT: FIG. 1, FIG. 2; for Sensitivity of patient samples with IDH1 mutants relative to WT: AML patient samples with IDH1 mutations vs WT
Description: For Genomics Analysis examples 2-4 below, studies were performed according to published procedures [Tyner, J. W., Tognon, C. E., Bottomly, D. et al. Functional genomic landscape of acute myeloid leukaemia. Nature 562, 526-531 (2018) doi:10.1038/s41586-018-0623-z; Kurtz, S. E., Eide, C. […] PNAS Sep. 5, 2017 114 (36) 7554-7563], which are incorporated by reference in their entirety herein.
All patient samples were analyzed for clinical characteristics and drug sensitivity. AML, CLL, ALL and MDS/MPN and other patient samples were analyzed with respect to expanded, disease-specific panels of clinical, prognostic, genetic, cytogenetic, and surface antigen characteristics obtained from patient electronic medical records. Genetic characterization of AML samples included results of a clinical deep-sequencing panel of genes commonly mutated in hematologic malignancies (GeneTrails panel from Knight Diagnostic Laboratories, OHSU; Foundation Medicine reports from UT Southwestern).
Compound 7 and/or venetoclax were prepared in a well in a seven-point concentration series. Similar plates were prepared with the 48 indicated pairwise inhibitor combinations in seven-point fixed molar concentration series identical to those used for single agents. The final concentration of DMSO was ≤0.1% in all wells, and all sets of single-agent and combination destination plates were stored at −20° C. and thawed immediately before use. Primary mononuclear cells were plated across single-agent and combination inhibitor panels within 24 h of collection. Cells were seeded into assay plates at 10,000 cells per well in RPMI 1640 media supplemented with FBS (10%), L-glutamine, penicillin/streptomycin, and β-mercaptoethanol (10^−4 M). After 3 d of culture at 37° C. in 5% CO2, MTS reagent (CellTiter96 AQueous One; Promega) was added, optical density was measured at 490 nm, and raw absorbance values were adjusted to a reference blank value and then used to determine cell viability (normalized to untreated control wells).
Normalized viability values at each dose of a seven-point dilution series for Compound 7, venetoclax or combinations of the two compounds were analyzed for each of numerous primary leukemia samples. Dose concentrations were log 10-transformed, and a probit regression curve was fit to each seven-point drug sensitivity profile by using maximum-likelihood estimation for the intercept and slope. This parametric model was chosen over a polynomial because the probit's monotonic shape reflects a dose-response curve typically seen in samples incubated with cytotoxic or inhibitory agents. Normalized viability values greater than 100%, indicating higher cell viability than the average viability across control wells on a given plate, were truncated to 100% to produce a percentage response variable amenable to probit modeling. From the fitted probit curve for each sample/drug pairing, the IC50 was defined as the lowest concentration to achieve 50% predicted viability and the AUC was computed by integration of the curve height across the tested dose range. If the predicted cell viability (i.e., probit curve height) was ≤50% at the lowest tested dose or >50% across the entire dose range, the IC50 was designated as the lowest dose or highest dose, respectively. For sensitivity profiles with 100% normalized viability at all seven dose points, the IC50 and AUC were designated as the highest tested dose and the maximum possible AUC, respectively. For sensitivity profiles with 0% viability at all seven dose points, the IC50 and AUC were designated as the lowest tested dose and a value (0.5) just below the minimum probit-derived AUC, respectively.
Genomics analysis of Compound 7 was performed by testing the association of somatic mutations and expression data with Compound 7 response on freshly harvested malignant bone marrow or peripheral blood cells from AML patients. […]

[2] = tested on: B-cell malignant cell lines (e.g. AML cell lines); test: Potency against B-cell malignant cell lines compared with conventional IDH1 therapeutic agents; format: cell-based

Row | SMILES | Effectiveness (AUC of drug sensitivity) against ASXL1 mutant cells compared with wild type ([1]; 72-hour culture) | Effectiveness (AUC of drug sensitivity) against SRSF2 mutant cells compared with wild type ([1]; 72-hour culture, FIG. 4) | Potency relative to conventional IDH1 therapeutic agents (e.g., Tibsovo) [2] | Sensitivity of patient samples with FLT3-ITD mutations as compared to wild-type [1] | Sensitivity of patient samples with FLT3-ITD mutations as compared to wild-type ([1]; listed as compound 7) | Sensitivity of patient samples with IDH1 R132 residue mutants relative to WT ([1]; AML patient samples with IDH1 R132 residue mutants (n=6), on average, vs WT) | Sensitivity of patient samples with IDH1 mutants relative to WT [1] | Sensitivity of patient samples with IDH1 mutants relative to WT ([1]; listed as compound 7) | Effectiveness (AUC of drug sensitivity) in AML cells with IDH mutations compared to IDH wild type ([1]; IDH mutant vs IDH wild type AML cells, 72-hour culture, FIG. 4) | Effectiveness (AUC of drug sensitivity) in AML cells with TP53 mutations ([1]; TP53 mutant vs TP53 wild type AML cells, 72-hour culture, FIG. 3) | IC50 towards killing cells in AML patient bone marrow samples with IDH1 mutations ([1]; all patient samples with IDH1 mutations, FIG. 2)
1 | CC1(COc2ccc3c(c2)ncn3-c2ccc3cccc(N4CCC(N)CC4)c3n2)COC1 [crenolanib, reference compound] | appear resistant | appear resistant |  |  |  |  |  |  |  |  | 
2 | Cc1cnc(-c2ccc(-c3ccc(NC(=O)Nc4c(F)cc(F)cc4F)cc3F)c3c2C(=O)NC3)[nH]1 [Compound 7, 1-{3-fluoro-4-[7-(5-methyl-1H-imidazol-2-yl)-1-oxo-2,3-dihydro-1H-isoindol-4-yl]-phenyl}-3-(2,4,6-trifluorophenyl)urea] | just as effective | just as effective | more potent | highly sensitive | more sensitive | significantly greater sensitivity | highly sensitive | greater sensitivity | substantially more effective | retains effectiveness | particular low
